# Tests used:
# PIK3CA(C420R) = test: KINOMEscan; details: 50000 nM
# Procedure: KINOMEscan™ selectivity screen
# (§1) Briefly, Kinase-tagged T7 phage strains were grown in parallel in an E. coli host derived from the BL21 strain. E. coli were grown to log-phase and infected with T7 phage from a frozen stock and incubated with shaking at 32°C until lysis (90-150 minutes). The kinases were produced in HEK-293 cells and subsequently tagged with DNA for qPCR detection. Streptavidin-coated magnetic beads were treated with biotinylated small molecule ligands to generate affinity resins for kinase
# (§2) inhibitor or DMSO control was performed in polypropylene 384-well plates for 1 hr at room temperature. After wash with PBS buffer containing 0.05% Tween 20, the beads were incubated in elution buffer (PBS containing 0.05 % Tween 20 and 0.5 μM non-biotinylated affinity ligand) for 30 minutes at room temperature. The kinase concentration in the eluates was measured by qPCR.
# MET(M1250T) = test: KINOMEscan; details: 50000 nM
# Procedure: KINOMEscan™ selectivity screen
# (§3) The assay was perfor med at DiscoveRx Corporation according the methods published previously5. […] The kinases were produced in HEK-293 cells and subsequently tagged with DNA for qPCR detection. Streptavidin-coated magnetic beads were treated with biotinylated small molecule ligands to generate affinity resins for kinase
# as §2
# HASPIN = test: KINOMEscan; details: 50000 nM
# Procedure: KINOMEscan™ selectivity screen
# (§4) The assay was perfor med at DiscoveRx Corporation according the methods published previously5. Briefly, Kinase-tagged T7 phage strains were grown in parallel in an E. coli host derived from the BL21 strain. E. coli were grown to log-phase and infected with T7 phage from a frozen stock and incubated with shaking at 32°C until lysis (90-150 minutes). The kinases were produced in HEK-293 cells and subsequently tagged with DNA for qPCR detection. Streptavidin-coated magnetic beads were treated with biotinylated small molecule ligands to generate affinity resins for kinase
# as §2
# DCAMKL1 = test: KINOMEscan; details: 50000 nM
# Procedure: KINOMEscan™ selectivity screen
# as §4, §2
# PRKCE = test: KINOMEscan; details: 50000 nM
# Procedure: KINOMEscan™ selectivity screen
# as §4, §2
# CDC2L1 = test: KINOMEscan; details: 50000 nM
# Procedure: KINOMEscan™ selectivity screen
# as §1, §2
# STK35 = test: KINOMEscan; details: 50000 nM
# Procedure: KINOMEscan™ selectivity screen
# as §1, §2
# ADCK4 = test: KINOMEscan; details: 50000 nM
# Procedure: KINOMEscan™ selectivity screen
# as §4, §2
# MELK = test: KINOMEscan; details: 50000 nM
# Procedure: KINOMEscan™ selectivity screen
# as §4, §2
# IKK-beta = test: KINOMEscan; details: 50000 nM
# Procedure: KINOMEscan™ selectivity screen
# as §4, §2
# BMPR2 = test: KINOMEscan; details: 50000 nM
# Procedure: KINOMEscan™ selectivity screen
# as §4, §2
# PCTK3 = test: KINOMEscan; details: 50000 nM
# Procedure: KINOMEscan™ selectivity screen
# as §4, §2
# FLT3(D835H) = test: KINOMEscan; details: 50000 nM
# Procedure: KINOMEscan™ selectivity screen
# as §4, §2
# WEE2 = test: KINOMEscan; details: 50000 nM
# Procedure: KINOMEscan™ selectivity screen
# as §3, §2
# RIPK1 = test: KINOMEscan; details: 50000 nM
# Procedure: KINOMEscan™ selectivity screen
# as §4, §2
# BMPR1A = test: KINOMEscan; details: 50000 nM
# Procedure: KINOMEscan™ selectivity screen
# as §4, §2
# DCAMKL2 = test: KINOMEscan; details: 50000 nM
# Procedure: KINOMEscan™ selectivity screen
# as §4, §2
# FLT3(ITD) = test: KINOMEscan; details: 50000 nM
# Procedure: KINOMEscan™ selectivity screen
# as §3, §2
# MTOR = test: KINOMEscan; details: 50000 nM
# Procedure: KINOMEscan™ selectivity screen
# as §4, §2
# [1] = system: ABL1(M351T)-phosphorylated; test: KINOMEscan; details: 50000 nM
# Procedure: KINOMEscan™ selectivity screen
# as §3, §2
# ULK1 = test: KINOMEscan; details: 50000 nM
# Procedure: KINOMEscan™ selectivity screen
# as §4, §2
# [2] = system: JAK1(JH1domain-catalytic); test: KINOMEscan; details: 50000 nM
# Procedure: KINOMEscan™ selectivity screen
# as §4, §2
# ACVR1 = test: KINOMEscan; details: 50000 nM
# Procedure: KINOMEscan™ selectivity screen
# as §4, §2
# YSK1 = test: KINOMEscan; details: 50000 nM
# Procedure: KINOMEscan™ selectivity screen
# as §4, §2
# ANKK1 = test: KINOMEscan; details: 50000 nM
# Procedure: KINOMEscan™ selectivity screen
# as §4, §2
# NDR2 = test: KINOMEscan; details: 50000 nM
# Procedure: as §1, §2
# JNK1 = test: KINOMEscan; details: 50000 nM
# Procedure: KINOMEscan™ selectivity screen
# as §4, §2
# NEK6 = test: KINOMEscan; details: 50000 nM
# Procedure: KINOMEscan™ selectivity screen
# as §4, §2
# EGFR(S752-I759del) = test: KINOMEscan; details: 50000 nM
# Procedure: KINOMEscan™ selectivity screen
# as §4, §2
# AURKC = test: KINOMEscan; details: 50000 nM
# Procedure: KINOMEscan™ selectivity screen
# as §4, §2
# PIK3CD = test: KINOMEscan; details: 50000 nM
# Procedure: KINOMEscan™ selectivity screen
# as §4, §2
# PCTK2 = test: KINOMEscan; details: 50000 nM
# Procedure: KINOMEscan™ selectivity screen
# as §4, §2
# [3] = system: EGFR(L747-S752del, P753S); test: KINOMEscan; details: 50000 nM
# Procedure: as §1, §2
# cleaved caspase 3 = test: Western blot of cleaved caspase 3; assay type: cell-based, Mouse; details: Neuro 2A cells
# Procedure: Neuro 2A cells were seeded in 12-well plates in DMEM containing 5% FBS for 24 hr.
# After overnight serum starvation (in 0% FBS DMEM), cells were incubated for 30 min at 37 °C with G7 or LY294002 or Torin 1 (Sigma Aldrich) at various concentrations, or DMSO control. IGF-1 was added to each well at a final concentration of 100 ng/mL. After 30-min incubation cells were washed with cold PBS and lysed with 50 µL lysis buffer containing 1% Triton X-100 and protease/phosphatase inhibitors (Cell Signaling Technology) or RIPA buffer (Santa Cruz Biotech). Samples were electrophoresed in 4–12% Bis-Tris gels (Life Technologies) at 150 V using MOPS SDS running buffer. Proteins were transferred electrophoretically to a PVDF or nitrocellulose membrane. For detection of cleaved […]
# caspase 3 a Trans-Blot Turbo Transfer System (Bio-Rad, 25 V for 25 min) with PVDF membrane were used. […]
# anti- GAPDH (14C10) antibody (#2118) (all antibodies were from Cell Signaling Technology unless indicated, 1:1000 dilution was used) at 4°C overnight, washed three times with TBS-T, then incubated with peroxidase-conjugated secondary antibody (Sigma-Aldrich) for 1 hr at room temperature. […] Band intensity was quantitated using Kodak 1D imaging analysis software. […]
# [4] = system: RPS6KA4(Kin.Dom.2-C-terminal); test: KINOMEscan; details: 50000 nM
# Procedure: KINOMEscan™ selectivity screen
# as §4, §2
# OSR1 = test: KINOMEscan; details: 50000 nM
# Procedure: KINOMEscan™ selectivity screen
# as §1, §2
compound,measurement,setting,value
"Oc1cc(-c2ccccc2)c2ccccc2n1 [G7, 4-phenylquinolin-2(1H)-one]",Percent Control,PIK3CA(C420R),100%
same,Percent Control,MET(M1250T),96%
same,Percent Control,HASPIN,57%
same,Percent Control,DCAMKL1,87%
same,Percent Control,PRKCE,100%
same,Percent Control,CDC2L1,100%
same,Percent Control,STK35,90%
same,Percent Control,ADCK4,96%
same,Percent Control,MELK,97%
same,Percent Control,IKK-beta,83%
same,Percent Control,BMPR2,82%
same,Percent Control,PCTK3,96%
same,Percent Control,FLT3(D835H),34%
same,Percent Control,WEE2,84%
same,Percent Control,RIPK1,100%
same,Percent Control,BMPR1A,100%
same,Percent Control,DCAMKL2,97%
same,Percent Control,FLT3(ITD),52%
same,Percent Control,MTOR,100%
same,Percent Control,[1],55%
same,Percent Control,ULK1,74%
same,Percent Control,[2],82%
same,Percent Control,ACVR1,100%
same,Percent Control,YSK1,70%
same,Percent Control,ANKK1,73%
same,Percent Control,NDR2,88%
same,Percent Control,JNK1,75%
same,Percent Control,NEK6,92%
same,Percent Control,EGFR(S752-I759del),85%
same,Percent Control,AURKC,66%
same,Percent Control,PIK3CD,100%
same,Percent Control,PCTK2,99%
same,Percent Control,[3],84%
same,levels of the cleaved caspase 3,cleaved caspase 3,elevated levels
same,Percent Control,[4],92%
same,Percent Control,OSR1,87%
